How the values were obtained:
[1] = biological target: T1, 14-3-3σ•Task-3 ctp interaction (Homo sapiens, UniProt P31947); assay: Fluorescence polarization (FP) of fluorescein-labeled Task-3 ctp titrated with 14-3-3σ; format: binding; conditions: for screen for functional interaction with 14-3-3σ•Task-3 ctp complex (result in words): library screen of 8a-j, 9-11, FIG. 3
T1 construct: made in house; host or cells: E. coli BL21
Procedure: (§1) Replicated in this example was Ottmann's characterization of interactions between 14-3-3σ and a synthetic hexapeptide of Task-3 containing the putative C-terminal 14-3-3-interaction motif KRRK-pS-V (Task-3 ctp). (Anders, C. et al., Chem. Biol. 2013, 13, 583-593).
(§2) Recombinant human 14-3-3σ was prepared using a bacterial expression protocol, which routinely produced 15 mg/L of purified protein. Recombinant 14-3-3σ was expressed in BL21 E. Coli cells and purified by Ni-affinity chromatography.
The titration protocol was adapted to 96-well plate format using fluorescence polarization (FP) experiments. FP measurements of fluorescein-labeled Task-3 ctp, in the absence and presence of 100 μM fusicoccin A (1), titrated with 14-3-3σ were used to obtain the apparent Kd of the 14-3-3σ•Task-3 ctp interaction. […] Also collected were FP measurements of fluorescein-labeled c-Raf peptide, in the absence and presence of 100 μM fusicoccin A (1), titrated with 14-3-3σ to obtain the apparent Kd of the 14-3-3σ•c-Raf peptide interaction.
Error bars indicate the mean±SD of three independent experiments.
In view of the foregoing control data, a library of synthetic derivatives, including 8a-j, 9-11, was screened for functional interactions 14-3-3σ•Task-3 ctp complex. […]

14-3-3σ•Task-3 ctp = biological target: T2, 14-3-3σ•Task-3 ctp (Homo sapiens, UniProt P31947); assay: Isothermal titration calorimetry (ITC) of Task-3 ctp with 14-3-3σ in the presence and absence of fusicoccin A; format: binding; conditions: 100 μM fusicoccin A vs absence
T2 construct: made in house; host or cells: E. coli BL21
T2 sequence (P31947 whole entry, other chains not shown): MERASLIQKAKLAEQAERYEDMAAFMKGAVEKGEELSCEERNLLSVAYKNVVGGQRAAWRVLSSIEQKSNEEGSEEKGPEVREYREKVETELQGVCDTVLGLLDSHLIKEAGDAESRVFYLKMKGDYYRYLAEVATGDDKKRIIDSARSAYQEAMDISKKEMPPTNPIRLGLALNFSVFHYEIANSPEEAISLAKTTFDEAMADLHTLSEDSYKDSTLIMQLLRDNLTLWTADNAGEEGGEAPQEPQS
Procedure: as §1, §2
This was determined by the association of ITC binding isotherms for Task-3 ctp with 14-3-3σ in the presence and absence of 100 μM of fusicoccin A (1).

14-3-3•PMA2 complex = conditions: background statement; cited from earlier work

T1 sequence (P31947 whole entry, other chains not shown): as above

SMILES: C=C(C)C1=C2[C@H]3C=C[C@]4(CCC[C@H]4C[C@@]2(C)CC1)O3 (racemic) [compound 11]
- fold enhancement of apparent affinity of Task-3 ctp to 14-3-3σ ([1]; FP, DMSO (10%) in buffer, 1.6 mM compound): 1.2 fold
- screen for functional interaction with 14-3-3σ•Task-3 ctp complex (result in words) [1]: increase the apparent affinity

SMILES: C=CC(C)(C)OC[C@H]1O[C@H](O[C@@H]2C3=C([C@H](C)COC(C)=O)C[C@H](O)[C@]3(C)/C=C3/[C@@H](COC)CC[C@H]3[C@@H](C)[C@H]2O)[C@H](O)[C@@H](OC(C)=O)[C@@H]1O [fusicoccin A, reference compound]
- fold stabilization of 14-3-3σ•Task-3 ctp (14-3-3σ•Task-3 ctp): 152 fold
- prolongation of the lifetime of the 14-3-3•PMA2 complex (14-3-3•PMA2 complex): 90 fold
- fold enhancement of apparent affinity of Task-3 ctp to 14-3-3σ ([1]; FP, 100 μM fusicoccin A): 37 fold
- EC50 ([1]; FP, fluorescein-labeled Task-3 ctp and 14-3-3σ titrated with compound, mean±SD of three experiments, read-out: EC50 of stabilization of the 14-3-3σ•Task-3 ctp complex): 1.4 ± 0.3 µM

SMILES: CC1CC(=O)C2C3C=CC4(CCCC4CC12)O3 (racemic) [compound 9, (±)-9-Methyl-1,2,3,6,6a,8,9,9a, 10,10a-decahydro-7H-3a,6-epoxydicyclopenta[a,d] [8]annulen-7-one]
- melting point: 88.9 to 91.3 °C

SMILES: O=C1CCC2=C1[C@H]1C=C[C@]3(CCC[C@H]3C2)O1 (racemic) [compound 8a, (±)-1,2,3,6,8,9,10,10a-octahydro-7H-3a,6-epoxydicyclopenta[a,d] [8]annulen-7-one]
- melting point: 50.8 to 51.3 °C

SMILES: O=C1CCC2=C1[C@@]1(CN3CCOCC3)C=C[C@]3(CCC[C@H]3C2)O1 [compound 8f]
- fold enhancement of apparent affinity of Task-3 ctp to 14-3-3σ ([1]; FP, DMSO (10%) in buffer, 6.3 mM compound): 1.1 fold
- screen for functional interaction with 14-3-3σ•Task-3 ctp complex (result in words) [1]: increase the apparent affinity

— patent US10253038B2, “Fusicoccane derivatives and methods” (Florida State University Research Foundation, Inc., priority 2017, dated 2019)
